Test system: hair cells in sisomicin-treated rat OC explants
Assay: OC explants after sisomicin ototoxic damage
Type: cell-based
Details: sisomicin 200 μM 2 h
Experimental: To induce ototoxic damage, medium was removed from the OC cultures on the day after dissection and either 200 μM sisomicin (Sigma) in full otic medium, or 10^8 cfu/ml Streptococcus pneumoniae (described below) in ampicillin-free and FBS-free otic medium were added under the transwell membrane (lower compartment) of the cultivation system. After 2 h of exposure to the ototoxic insult, OCs were carefully washed 3 times and culture was continued for 4 days in fresh full otic medium.
Following culture, explants were washed (PBS) and fixed for 10 min at room temperature (RT) with 4% paraformaldehyde (PFA). […]
Dividing cells were labeled with, 5-ethyl-2′-deoxyuridine (EdU) and detected with Click-it Plus kit (Life Technologies). […]
Image processing was performed with the open-source image processing software FIJI, version 2.0 ([Schindelin et al., 2012]). Hair cells were quantified by counting Pou4f3 or Myo7a positive cells of the organ of Corti at three random microscopic fields for each cochlear region (base, middle, and apex) covering in total at least 1,200 μm. The number of hair cells (IHCs and OHCs) is expressed as unit per 100 μm.
FIGURE 3 GSI treatment after ototoxic damage. […] (B) Quantification of OHCs in sisomicin-treated explants (2 h; 200 μM), 4 days after ototoxic insult, and cultured in presence or absence of CPD3. […] (F) OHC quantification after bacteria-induced damage. […]

COc1ccc2c(c1)N1CCC(C)(C)C1=CC(=O)[C@H]2NC(=O)[C@H](C)NC(=O)CCC(F)(F)F [CPD3] was tested, and the “Increase of OHC numbers after sisomicin” value (4 days culture, apex) was “not statistically significant” and the “Pou4f3/Sox2 double-positive cells after sisomicin” value (4 days, p = 0.057) was “observed only in the apical domain”.
